US20260083709A1, “COMBINATION PHARMACOLOGICAL INTERVENTIONS FOR MULTIPLE MECHANISMS OF OBSTRUCTIVE SLEEP APNEA” (APNIMED, INC.(DELAWARE), priority 2019, published 2026)

Tests used:
[1] = system: OSA; assay: Acetazolamide effect on loop gain and OSA severity; set-up: species or system human; settings: in vivo
Excerpt: Residual events after anatomical interventions can arise as an effect of elevated loop gain. […] Acetazolamide is a respiratory stimulant used in healthy adults at high-altitude (where it augments and stabilizes respiration) and has additionally been administered safely long-term for glaucoma and heart failure.

[2] = system: OSA; settings: agents administered separately (N=9); cited from earlier work

Compound | reduction of OSA severity (AHI) [1] [%] | reduction of loop gain [1] [%] | effect on OSA severity, agents administered separately [2]
CC(=O)Nc1nnc(S(N)(=O)=O)s1 [acetazolamide] | ~50 | ~50 | –
CNCC[C@@H](Oc1ccccc1C)c1ccccc1 [atomoxetine, Atomoxetine] | – | – | minimal effect
CCN(CC)CC#CCOC(=O)C(O)(c1ccccc1)C1CCCCC1 (stereo not shown) [oxybutynin] | – | – | minimal effect
